B1: recombinant PKG-Iα (rPKG-Iα) (Homo sapiens) (protein)
chain: MSELEEDFAKILMLKEERIKELEKRLSEKEEEIQELKRKLHKCQSVLPVPSTHIGPRTTRAQGISAEPQTYRSFHDLRQAFRKFTKSERSKDLIKEAILDNDFMKNLELSQIQEIVDCMYPVEYGKDSCIIKEGDVGSLVYVMEDGKVEVTKEGVKLCTMGPGKVFGELAILYNCTRTATVKTLVNVKLWAIDRQCFQTIMMRTGLIKHTEYMEFLKSVPTFQSLPEEILSKLADVLEETHYENGEYIIRQGARGDTFFIISKGTVNVTREDSPSEDPVFLRTLGKGDWFGEKALQGEDVRTANVIAAEAVTCLVIDRDSFKHLIGGLDDVSNKAYEDAEAKAKYEAEAAFFANLKLSDFNIIDTLGVGGFGRVELVQLKSEESKTFAMKILKKRHIVDTRQQEHIRSEKQIMQGAHSDFIVRLYRTFKDSKYLYMLMEACLGGELWTILRDRGSFEDSTTRFYTACVVEAFAYLHSKGIIYRDLKPENLILDHRGYAKLVDFGFAKKIGFGKKTWTFCGTPEYVAPEIILNKGHDISADYWSLGILMYELLTGSPPFSGPDPMKTYNIILRGIDMIEFPKKIAKNAANLIKKLCRDNPSERLGNLKNGVKDIQKHKWFEGFNWEGLRKGTLTPPIIPSVASPTDTSNFDSFPEDNDEPPPDDNSGWDIDF

Experiments:
[1] = system: MDA-MB-231 breast cancer cell lysates; assay: NIRF-based kinase reaction in breast cancer cell lysates with and without PKC-inhibitor cocktail; format: biochemical; settings: cGMP 10 μM, MDA-MB-231 cell lysates
Description: This allows simultaneous determination of PKG-I kinase activity in MDA-MB-231 breast cancer cell lysates (D).
Each reagent has been previously experimentally tested to be the optimum concentration used for a complete radioactive-free kinase reaction to measure PKG kinase activity. The reagents for homogenizing buffer include: 20 mM Potassium phosphate (pH 7.0), 10 mM EDTA, 0.5 mM isobutylmethylxanthine, and 10 mM DTT.
Table 5 is the disclosure protocol that is illustrated as a work flow in FIG. 7. Biological samples can be prepared in the homogenizing buffer (Table 4) using a variety of techniques. These techniques include, but are not limited to: sonication, dounce-homogenation, the use of a tissue grinder, and/or a detergent specialized for lysing cells. Once a biological sample is prepared in the specially formulated homogenizing buffer from Table 4 or purified/recombinant protein buffer recommended by the manufacturer (2) included in the disclosure, the sample can be added to a sterile microfuge tube containing the radioactive-free kinase reaction mixture containing NIRF-Histone-H2B(29-35) (Table 3 and FIG. 1) (4). The kinase reaction typically requires an incubation chamber capable of reaching a temperature of 30° C. to incubate the samples. The time and temperature of incubation is determined by the researcher, but short incubation times of 2 minutes can be used. […]

[2] = substrate: Nc1ncnc2c1ncn2[C@@H]1O[C@H](COP(=O)(O)OP(=O)(O)OP(=O)(O)O)[C@@H](O)[C@H]1O; assay: purified protein, by the assay type; settings: 30.0 °C

Molecule | effect of exogenously-added cGMP on kinase activity in cell lysates [1] | Km [2] [µM]
Nc1nc2c(ncn2[C@@H]2O[C@@H]3COP(=O)(O)O[C@H]3[C@H]2O)c(=O)[nH]1 [cGMP, cyclic guanosine monophosphate] | does not cause increased kinase activity | –
B1 | – | 8.8

From patent publication US20140287447A1, “Ultrasensitive methodology for quantifying the kinase catalytic activity of any protein kinase in biological/clinical samples or recombinant/purified proteins using near-infrared-fluorescence (NIRF)-labeled, kinase-selective peptide substrates and a combination of kinase-selective inhibitors to …” (priority 2013, published 2014)
